According to PMC11198769, “Enhancement of transcription efficiency by TAR-Tat system increases the functional expression of human olfactory receptors” (PLOS ONE, 2024):

Tests used:
Test in all cases: Comprehensive analysis (screening) of hORs against n-hexanal
Type in all cases: cell-based
OR2J3 = molecular target: T1, OR2J3 (Homo sapiens, UniProt O76001); details: OR2J3, 500 μM n-hexanal, n = 1
T1 construct: Lucy tag (N); FLAG (N); Rho tag (N); expressed in transfected cells; host or cells: Flp-In T-REx-293 cells stably expressing RTP1S, Gαolf and Ric8-b
T1 sequence (O76001 1-311): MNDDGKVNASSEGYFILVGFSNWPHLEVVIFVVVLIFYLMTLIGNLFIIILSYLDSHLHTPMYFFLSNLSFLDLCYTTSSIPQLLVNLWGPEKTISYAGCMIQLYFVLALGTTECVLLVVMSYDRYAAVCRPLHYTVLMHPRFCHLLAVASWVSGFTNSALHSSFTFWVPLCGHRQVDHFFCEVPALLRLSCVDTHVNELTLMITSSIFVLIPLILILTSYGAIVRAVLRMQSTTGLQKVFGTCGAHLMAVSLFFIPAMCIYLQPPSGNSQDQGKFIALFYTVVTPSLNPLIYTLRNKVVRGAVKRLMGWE
Procedure: (§1) Transfection was performed as described in the “hOR assay,” but 12.5 ng of 379 hOR plasmids (hOR/pBApo and hOR/pHEK) was transfected with the 12.5 ng pGlosensor^TM-22F cAMP biosensor plasmid (Promega) in 384 plates per well. After loading the GloSensor cAMP substrate and preincubation, the assay buffer was added (30 μL/well). After 10 min of equilibration, luminescence was measured (L0). Then, 50 mM n-hexanal, which was diluted with 10% DMSO/assay buffer, was added (4.7 μL/well). After 9 min, luminescence was measured (L9min). All the L9min values were subtracted by the L0 value (ΔL).

OR2M3 = molecular target: T2, OR2M3 (Homo sapiens, UniProt Q8NG83); details: OR2M3, 500 μM n-hexanal, with the TAR-Tat system (hOR/pHEK), n = 1
T2 construct: Lucy tag (N); expressed in transfected cells; host or cells: Flp-In T-REx-293 cells stably expressing RTP1S, Gαolf and Ric8-b
T2 sequence (Q8NG83 1-312): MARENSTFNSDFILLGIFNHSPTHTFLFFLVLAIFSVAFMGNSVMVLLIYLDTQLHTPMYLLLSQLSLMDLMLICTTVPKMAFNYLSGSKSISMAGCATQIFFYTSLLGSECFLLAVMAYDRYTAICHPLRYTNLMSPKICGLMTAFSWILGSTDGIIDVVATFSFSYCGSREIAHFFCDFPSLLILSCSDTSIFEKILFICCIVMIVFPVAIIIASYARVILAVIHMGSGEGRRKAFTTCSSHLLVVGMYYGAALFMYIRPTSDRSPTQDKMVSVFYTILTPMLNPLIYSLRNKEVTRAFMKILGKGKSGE
Procedure: as §1

OR2W1 = molecular target: T3, OR2W1 (Homo sapiens, UniProt Q9Y3N9); details: OR2W1, 500 μM n-hexanal, n = 1
T3 construct: Lucy tag (N); FLAG (N); Rho tag (N); expressed in transfected cells; host or cells: Flp-In T-REx-293 cells stably expressing RTP1S, Gαolf and Ric8-b
T3 sequence (Q9Y3N9 1-320): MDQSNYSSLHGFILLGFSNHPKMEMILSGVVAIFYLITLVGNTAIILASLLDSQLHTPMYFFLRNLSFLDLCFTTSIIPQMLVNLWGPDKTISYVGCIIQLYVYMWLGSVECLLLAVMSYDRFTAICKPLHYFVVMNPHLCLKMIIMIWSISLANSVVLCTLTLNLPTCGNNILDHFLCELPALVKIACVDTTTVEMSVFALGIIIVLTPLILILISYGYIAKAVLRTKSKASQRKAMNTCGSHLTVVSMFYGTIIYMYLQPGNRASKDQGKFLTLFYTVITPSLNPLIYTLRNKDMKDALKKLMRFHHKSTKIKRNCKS
Procedure: as §1

OR52N4 = molecular target: T4, OR52N4 (Homo sapiens, UniProt Q8NGI2); details: OR52N4, 500 μM n-hexanal, with the TAR-Tat system (hOR/pHEK), n = 1
T4 construct: Lucy tag (N); expressed in transfected cells; host or cells: Flp-In T-REx-293 cells stably expressing RTP1S, Gαolf and Ric8-b
T4 sequence (Q8NGI2 1-321): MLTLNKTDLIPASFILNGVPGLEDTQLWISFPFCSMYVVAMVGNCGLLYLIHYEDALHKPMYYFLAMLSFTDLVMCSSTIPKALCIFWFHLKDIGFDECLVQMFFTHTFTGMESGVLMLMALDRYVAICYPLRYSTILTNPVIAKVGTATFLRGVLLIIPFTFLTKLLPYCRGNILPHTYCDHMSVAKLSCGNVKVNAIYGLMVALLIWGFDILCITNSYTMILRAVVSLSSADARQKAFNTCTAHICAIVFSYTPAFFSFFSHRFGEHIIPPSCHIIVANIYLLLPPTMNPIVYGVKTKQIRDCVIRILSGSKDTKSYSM
Procedure: as §1

OR5M3 = molecular target: T5, OR5M3 (Homo sapiens, UniProt Q8NGP4); details: OR5M3, 500 μM n-hexanal, with the TAR-Tat system (hOR/pHEK), n = 1
T5 construct: Lucy tag (N); FLAG (N); Rho tag (N); expressed in transfected cells; host or cells: Flp-In T-REx-293 cells stably expressing RTP1S, Gαolf and Ric8-b
T5 sequence (Q8NGP4 1-307): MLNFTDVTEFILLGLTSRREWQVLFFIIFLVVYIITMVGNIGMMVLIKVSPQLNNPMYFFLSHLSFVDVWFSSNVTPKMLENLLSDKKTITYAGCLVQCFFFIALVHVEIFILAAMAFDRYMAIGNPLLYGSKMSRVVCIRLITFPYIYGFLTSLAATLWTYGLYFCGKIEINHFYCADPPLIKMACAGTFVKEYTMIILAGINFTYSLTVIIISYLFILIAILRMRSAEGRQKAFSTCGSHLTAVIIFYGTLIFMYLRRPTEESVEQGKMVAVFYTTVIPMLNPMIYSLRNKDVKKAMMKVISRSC
Procedure: as §1

OR8B8 = molecular target: T6, OR8B8 (Homo sapiens, UniProt Q15620); details: OR8B8, 500 μM n-hexanal, with the TAR-Tat system (hOR/pHEK), n = 1
T6 construct: Lucy tag (N); FLAG (N); Rho tag (N); expressed in transfected cells; host or cells: Flp-In T-REx-293 cells stably expressing RTP1S, Gαolf and Ric8-b
T6 sequence (Q15620 1-311): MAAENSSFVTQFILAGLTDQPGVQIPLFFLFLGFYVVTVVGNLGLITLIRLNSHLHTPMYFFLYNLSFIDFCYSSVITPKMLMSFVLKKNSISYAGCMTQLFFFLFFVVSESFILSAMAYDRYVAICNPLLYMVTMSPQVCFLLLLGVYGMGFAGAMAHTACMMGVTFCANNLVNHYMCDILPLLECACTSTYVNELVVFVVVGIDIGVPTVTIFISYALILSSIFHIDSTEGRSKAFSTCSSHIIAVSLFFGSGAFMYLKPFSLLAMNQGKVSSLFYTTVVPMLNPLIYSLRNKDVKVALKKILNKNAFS
Procedure: as §1

[1] = with the TAR-Tat system (hOR/pHEK)
[2] = without the TAR-Tat system (control plasmid)

CCCCCC=O [n-hexanal]
response value (ΔL) (OR2J3; [1]): 1580
response value (ΔL) (OR2J3; [2]): 549
response value (ΔL) (OR2M3): −620
response value (ΔL) (OR2W1; [1]): 9310
response value (ΔL) (OR2W1; [2]): 3463
response value (ΔL) (OR52N4): > 500
response value (ΔL) (OR5M3): > 500
response value (ΔL) (OR8B8): > 500
